From patent US20200163984A1, “USE OF ISOVALERYL SPIRAMYCIN I, II AND/OR III IN MANUFACTURING MEDICAMENT FOR TREATING AND/OR PREVENTING TUMOR, AND MEDICAMENT” (SHENYANG FUYANG PHARMACEUTICAL TECHNOLOGY CO., LTD., priority 2017, published 2020)

What was measured:
[1] = test system: transplanted tumor of human non-small cell lung cancer cell A549; experiment: A549 transplanted tumor in nude mice; details: for Tumor Volume (mm3) (d 1): d1
Experimental: A549 cells in a logarithmic growth phase were taken and subjected to a trypan blue exclusion experiment showing that the cell viability was more than 95%, then the cells were subjected to trypsinization, centrifugation, and supernatant removal. Then cell concentration was adjusted to 1×10^7/ml with matrigel, then each nude mouse was inoculated subcutaneously with 0.2 ml of cells at its right armpit and recorded as the first day of inoculation. When the tumor grows to be greater than or equal to 100 mm^3, the mice were randomly divided into 11 groups with 6 mice in each group: a model group, a cyclophosphamide group, isovaleryl spiramycin I groups with doses of 25, 50 and 100 mg/kg, isovaleryl spiramycin II groups with doses of 25, 50 and 100 mg/kg, and isovaleryl spiramycin III groups with doses of 25, 50 and 100 mg/kg. Each group was continuously administered intragastrically for 30 days with a dose of 20 ml/kg. The mice were sacrificed the next day after drug withdrawal and the indicators were tested. The long diameter and short diameter of the tumor, and the body weight of each mouse were recorded every 3 days from drug administration to nude mouse sacrifice.
The body weight of the nude mice and the long diameter (a) and short diameter (b) of the transplanted tumor were measured every 3 days, and the tumor volume (v), relative tumor volume (RTV) and relative tumor proliferation rate (T/C) are calculated respectively according to the following formulas, wherein V=a×b^2/2; RTV=V/V0 (V0 is the tumor volume before administration, V is the tumor volume before sacrifice), and T/C (%)=treatment group RTV/model control group RTV×100%.
Each mouse was weighed and sacrificed. After the tumor was completely stripped off from the body of the mouse, the non-tumor tissues such as blood stains and fat were removed to weigh the tumor and calculate the tumor growth inhibition rate. The average tumor weight of each group of mice is used as an indicator of efficacy. Tumor growth inhibition rate (%)=(1−the average tumor weight of the treatment group/the average tumor weight of the model group)×100%.

[2] = Spleen index of A549 lung cancer tumor-bearing mice; details: n = 6
[3] = test system: transplanted tumor of mouse Lewis lung cancer; experiment: Transplanted tumor of mouse Lewis lung cancer; details: for Tumor Volume (mm3) (d 1) / Tumor Volume (mm3) (d30) / Relative Tumor Proliferation Rate (T/C) / Relative Tumor Volume (RTV): title prints KM mouse H22 cells; for Tumor Volume (mm3) (d30): d 30; for Body Weight (g) (d1) / Body Weight (g) (d 15): mouse, in vivo
Experimental: Lewis lung cancer cells were cultured in a RPMI 1640 culture medium containing 10% fetal bovine serum at 37° C. in a 5% CO2 incubator. The cells in the logarithmic growth phase were subjected to trypsinization with 0.25% trypsin, then the cells were collected to be centrifugated to remove the obtained supernatant, then were washed twice with sterile normal saline. […] The Lewis cells were adjusted to 1×10^7/mL in concentration and stored in ice water. 75% ethanol was used to disinfect the skin under the right armpits of the mice, and each C57BL/6 mouse was soon inoculated subcutaneously with 0.2 ml of the cells at its right armpit.
In the Lewis lung cancer model, the mice inoculated with the tumor were randomly divided into groups with 10 mice in each group the next day of inoculation. The groups included: a model control group, a positive drug cyclophosphamide control group (CTX, 30 mg/kg), isovaleryl spiramycin I groups with doses of 13, 26 and 52 mg/kg; isovaleryl spiramycin II groups with doses of 13, 26 and 52 mg/kg; isovaleryl spiramycin III groups with doses of 13, 26 and 52 mg/kg. Each group was continuously administered intragastrically for 15 days with a dose of 20 ml/kg.
The tumor-bearing mice were weighed and sacrificed the next day after the last administration. The subcutaneous tumors were dissected and weighed. The average tumor weight of each group is calculated, and the tumor inhibition rate is calculated.
Tumor inhibition rate=(1−T/C)×100%
T: average tumor weight of the drug-administered group; C: average tumor weight of the blank control group.

[4] = A549, high dose (100 mg/kg in method) i.g. 30 days
[5] = A549, low dose (25 mg/kg in method) i.g. 30 days
[6] = A549, medium dose (50 mg/kg in method) i.g. 30 days

- mouse weight compared with the model group ([1]; mouse, in vivo): no significant changes
SMILES: CO[C@@H]1[C@@H](O[C@@H]2O[C@H](C)[C@@H](O[C@H]3C[C@@](C)(O)[C@@H](OC(=O)CC(C)C)[C@H](C)O3)[C@H](N(C)C)[C@H]2O)[C@@H](CC=O)C[C@@H](C)[C@@H](O[C@H]2CC[C@H](N(C)C)[C@@H](C)O2)/C=C/C=C/C[C@@H](C)OC(=O)C[C@H]1O [Isovaleryl spiramycin I, isovaleryl spiramycin I]
- Relative Tumor Proliferation Rate (T/C) [1, 4]: 28.35%
- tumor growth inhibition rate [1, 4]: 69.52%
- Relative Tumor Proliferation Rate (T/C) [1, 5]: 67.18%
- tumor growth inhibition rate [1, 5]: 24.00%
- tumor volume and relative tumor volume compared with the model group ([1]; A549, low, medium and high doses, P<0.05): significantly lower
- Relative Tumor Proliferation Rate (T/C) [1, 6]: 41.93%
- tumor growth inhibition rate [1, 6]: 58.10%
- Inhibition Rate (%) ([1]; A549 nude mice, 25 mg/kg): 24.00%
- Relative Tumor Proliferation Rate (T/C) ([1]; A549 nude mice, 25 mg/kg): 67.18%
- Relative Tumor Volume (RTV) ([1]; A549 nude mice, 25 mg/kg): 10.91 ± 2.63
- Tumor Weight ([1]; A549 nude mice, 25 mg/kg): 1.82 ± 0.19 g
- Tumor Volume (mm3) (d 1) ([1]; A549 nude mice, 25 mg/kg): 111.89 ± 12.17 mm3
- Tumor Volume (mm3) (d30) ([1]; A549 nude mice, 25 mg/kg): 1227.24 ± 329.84 mm3
- Inhibition Rate (%) ([1]; A549 nude mice, 50 mg/kg): 58.10%
- Relative Tumor Proliferation Rate (T/C) ([1]; A549 nude mice, 50 mg/kg): 39.42%
- Relative Tumor Volume (RTV) ([1]; A549 nude mice, 50 mg/kg): 6.40 ± 1.75
- Tumor Weight ([1]; A549 nude mice, 50 mg/kg): 1.00 ± 0.44 g
- Tumor Volume (mm3) (d 1) ([1]; A549 nude mice, 50 mg/kg): 119.73 ± 5.73 mm3
- Tumor Volume (mm3) (d30) ([1]; A549 nude mice, 50 mg/kg): 750.44 ± 220.77 mm3
- Inhibition Rate (%) ([1]; A549 nude mice, 100 mg/kg): 69.52%
- Relative Tumor Proliferation Rate (T/C) ([1]; A549 nude mice, 100 mg/kg): 28.35%
- Relative Tumor Volume (RTV) ([1]; A549 nude mice, 100 mg/kg): 4.60 ± 3.69
- Tumor Weight ([1]; A549 nude mice, 100 mg/kg): 0.73 ± 0.45 g
- Tumor Volume (mm3) (d 1) ([1]; A549 nude mice, 100 mg/kg): 110.27 ± 11.43 mm3
- Tumor Volume (mm3) (d30) ([1]; A549 nude mice, 100 mg/kg): 475.83 ± 355.37 mm3
- Body Weight (g) (d1) ([1]; mouse, in vivo, 25 mg/kg): 21.54 ± 1.27 g
- Body Weight (g) (d30) ([1]; mouse, in vivo, 25 mg/kg): 24.20 ± 1.33 g
- Body Weight (g) (d1) ([1]; mouse, in vivo, 50 mg/kg): 21.48 ± 1.46 g
- Body Weight (g) (d30) ([1]; mouse, in vivo, 50 mg/kg): 25.56 ± 1.67 g
- Body Weight (g) (d1) ([1]; mouse, in vivo, 100 mg/kg): 21.36 ± 1.82 g
- Body Weight (g) (d30) ([1]; mouse, in vivo, 100 mg/kg): 24.47 ± 1.98 g
- Spleen Index (%) ([2]; dose 13 mg/kg): 0.32 ± 0.12%
- Spleen Index (%) ([2]; dose 26 mg/kg): 0.38 ± 0.09%
- Spleen Index (%) ([2]; dose 52 mg/kg): 0.31 ± 0.08%
- growth of Lewis lung cancer in mice ([3]; 13, 26 and 52 mg/kg i.g. 15 days): significantly inhibit
- Tumor Volume (mm3) (d 1) ([3]; dose 12.5 mg/kg): 104.68 ± 20.89 mm3
- Tumor Volume (mm3) (d30) ([3]; dose 12.5 mg/kg): 955.73 ± 330.24 mm3
- Relative Tumor Proliferation Rate (T/C) ([3]; dose 12.5 mg/kg): 57.56
- Relative Tumor Volume (RTV) ([3]; dose 12.5 mg/kg): 9.22 ± 2.95
- Inhibition Rate (%) ([3]; dose 13 mg/kg): 46.94%
- Tumor Weight ([3]; dose 13 mg/kg): 0.85 ± 0.24 g
- Tumor Volume (mm3) (d 1) ([3]; dose 25 mg/kg): 104.31 ± 19.76 mm3
- Tumor Volume (mm3) (d30) ([3]; dose 25 mg/kg): 756.20 ± 145.84 mm3
- Relative Tumor Proliferation Rate (T/C) ([3]; dose 25 mg/kg): 45.51
- Relative Tumor Volume (RTV) ([3]; dose 25 mg/kg): 7.29 ± 0.82
- Inhibition Rate (%) ([3]; dose 26 mg/kg): 62.97%
- Tumor Weight ([3]; dose 26 mg/kg): 0.59 ± 0.06 g
- Tumor Volume (mm3) (d 1) ([3]; dose 50 mg/kg): 103.79 ± 19.55 mm3
- Tumor Volume (mm3) (d30) ([3]; dose 50 mg/kg): 465.26 ± 52.94 mm3
- Relative Tumor Proliferation Rate (T/C) ([3]; dose 50 mg/kg): 29.05
- Relative Tumor Volume (RTV) ([3]; dose 50 mg/kg): 4.65 ± 1.27
- Inhibition Rate (%) ([3]; dose 52 mg/kg): 71.83%
- Tumor Weight ([3]; dose 52 mg/kg): 0.45 ± 0.14 g
- Body Weight (g) (d1) ([3]; 13 mg/kg): 19.93 ± 1.20 g
- Body Weight (g) (d 15) ([3]; 13 mg/kg): 22.70 ± 0.87 g
- Body Weight (g) (d1) ([3]; 26 mg/kg): 19.45 ± 0.68 g
- Body Weight (g) (d 15) ([3]; 26 mg/kg): 23.43 ± 1.41 g
- Body Weight (g) (d1) ([3]; 52 mg/kg): 19.87 ± 1.17 g
- Body Weight (g) (d 15) ([3]; 52 mg/kg): 23.25 ± 0.43 g
